The record followed here is ChEMBL document CHEMBL1201862, “PubChem BioAssay data set” (2004).

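Five compound concentrations were applied to cells in 96-well plates for 48 hours; endpoints were derived by simple linear interpolation of the resulting dose-response curve. Here, GI50 denotes the concentration required for 50% inhibition of growth.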 The source made the active and inactive calls. Cut-off read from the data, not from the text of the source: active = GI50 up to about 1.1 µM and inactive = higher. A value given as a limit tells only on which side of the number the result lay.

Some test systems named below: CCRF-CEM; HCT-116; HL-60; HOP-62; HOP-92; HT-29; IGROV-1; K562; MDA-N; NCI-H460; NCI/ADR-RES; OVCAR-5; OVCAR-8; SF-295; SK-MEL-28; SR; SW-620; T47D; U-251; UO-31.
Common to all, as to assay: DTP human tumour cell line panel, 48 h

For the molecule `COc1cc(O)c2c(=O)cc(C3(OC(C)=O)C=CC(OC4OC(CO)C(O)C(O)C4O)C=C3)oc2c1` (stereo not given), the GI50 in the assay on CCRF-CEM, in the assay with HCT-116, in the assay on HL-60, in the assay with HOP-62, with HOP-92 and with HT-29 was > 100 µM (inactive) in each case. Further, the GI50 in the assay on IGROV-1, in the assay on K562, in the assay with MDA-N, in the assay with NCI-H460, with NCI/ADR-RES and in the assay with OVCAR-5 was > 100 µM (inactive) each time. Besides, the GI50 in the assay with OVCAR-8, in the assay with SF-295, in the assay on SK-MEL-28, with SR, with SW-620 and in the assay with T47D was > 100 µM (inactive) throughout. Also, the GI50 in the assay on U-251 and in the assay on UO-31 was > 100 µM (inactive) in each case.

On to `CCN(CCCl)CCCCNc1c2ccccc2nc2ccc(OC)cc12`, for which the GI50 in the assay with CCRF-CEM was < 0.037 µM (active); in the assay on HCT-116 it was 0.0542 µM (active); with HL-60, 0.0929 µM (active); in the assay with HOP-62 it was 0.439 µM (active); with HOP-92, 0.18 µM (active); in the assay on HT-29 it was 0.13 µM (active). Besides, the 50% growth inhibitory concentration (GI50) was 0.163 µM (active) in the assay with IGROV-1; 0.2 µM (active) in the assay on K562; 0.676 µM (active) in the assay on MDA-N; 0.0601 µM (active) in the assay with NCI-H460; 4.25 µM (inactive) with NCI/ADR-RES; 0.659 µM (active) with OVCAR-5. The concentration for 50% growth inhibition (GI50) with OVCAR-8 was 0.305 µM (active); with SF-295, 0.259 µM (active); in the assay with SK-MEL-28, 1.58 µM (inactive); in the assay with SR, < 0.01 µM (active); with SW-620, 0.0664 µM (active); in the assay with T47D, 0.191 µM (active). The GI50 is 0.239 µM (active) in the assay with U-251 and 1.11 µM (active) with UO-31.
